According to paper PMC11046469, “Leveraging a Phage-Encoded Noncanonical Amino Acid: A Novel Pathway to Potent and Selective Epigenetic Reader Protein Inhibitors” (ACS Central Science, 2024):
Where “and” joins values, the source holds several entries; their conditions need not be identical. Equal values may be shown once. Where a SMILES comes first, the peptide text is derived from it. The star is where a group is joined. Oxazole(5-CO) = O=C(c1cnco1)*; Crotonyl(E) = C/C=C/C(=O)*; 2Furoyl = O=C(c1ccco1)*; Butyryl = CCCC(=O)*

Tests used:
[1] = molecular target: T1, ENL YEATS domain (His-ENL) (Homo sapiens, UniProt Q03111); experiment: Biolayer interferometry (BLI) binding to ENL YEATS; conditions: for Selectivity (ENL:AF9) from BLI KD values: ratio KD,AF9 / KD,ENL
T1 construct: (aa 1−148) was cloned in pET19b; made in house; host or cells: E. coli BL21(DE3pLysS)
T1 sequence (Q03111 1-148): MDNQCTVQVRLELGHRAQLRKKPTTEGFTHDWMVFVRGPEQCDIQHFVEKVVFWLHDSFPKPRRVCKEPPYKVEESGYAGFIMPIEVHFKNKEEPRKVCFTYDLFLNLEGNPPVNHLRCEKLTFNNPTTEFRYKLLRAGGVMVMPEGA
Text: (§1) To test the inhibition potency of the two selected peptides for the ENL YEATS domain, ENL-S1 and ENL-S2 were chemically synthesized through solid-phase peptide synthesis (SPPS) and evaluated by an AlphaScreen assay. In this assay, a biotinylated H3K27cr peptide and a 6xHis-tagged ENL YEATS domain (His-ENL YEATS) were immobilized on PerkinElmer streptavidin donor and nickel-chelating (Ni-NTA) acceptor beads, respectively. The use of a His-ENL YEATS instead of the original AviSUMO-ENL YEATS construct in the assay prevents potential false positive results derived from ligands which bind to the SUMO protein but not to the ENL YEATS domain. […] We then assessed the binding affinity of two ligands for the ENL YEATS domain using biolayer interferometry (BLI). Briefly, His-ENL was immobilized onto Ni-NTA functionalized biosensors to measure the binding kinetics of target peptides at different concentrations. […] As a small peptide directly selected from a phage display library, this level of high potency was unexpected. […] However, shorter-than-10-mer linear peptides with nanomolar binding potency have rarely been directly selected from phage display libraries. One example was S2P03, a 7-mer peptide that has a KD value as 49 ± 9 nM to bind to SIRT2.[10] This peptide contained BuK and was identified also from a BuK-containing phage display library using the active site-directed ligand selection technique. Taken together, the two examples confirmed that utilizing phage display libraries incorporated with a ncAA serving as a ligand for a protein target for active site-directed ligand selection is a successful method for identifying ultrahigh potency ligands for epigenetic proteins including both enzymes and readers. For ENL-S1 and ENL-S2, their determined kon and koff values were 6.23 ± 0.07 × 10^4 M^–1 s^–1, […] and […], 5.54 ± 0.02 × 10^–3 s^–1, respectively. Compared to ENL-S2, ENL-S1 has faster binding to the ENL YEATS domain and slower release from it, indicating its potential long-term action on the ENL YEATS inhibition. […]
Biolayer Interferometry to Validate ENL Ligands:
His-ENL, His-AF9 (aa 1-149, EpiCypher), His-GAS41 (aa 15-160, EpiCypher), and YEATS2-His (aa 200-345, EpiCypher) were reconstituted in water and diluted into assay buffer (20mM Tris, 300 mM NaCl, pH 7.9) for immobilization onto Octet Ni-NTA biosensors (Sartorius). Lyophilized peptides were dissolved in DMF and diluted to designated concentrations in assay buffer. Biolayer interferometry assays were performed in 96 well plates (GreinerBio-One, polypropylene, flat-bottom) using an Octet Red96 System (Sartorius). Wells were filled with 200 μL of assay buffer, blocking buffer (assay buffer + 0.1% BSA), protein solution, peptide solution, regeneration solution, and reload solution. For immobilization, His-tagged proteins were immobilized onto Ni-NTA sensors at 20 for 600 s. Sensors were then dipped into blocking buffer for 180 s, assay […] buffer for 300 s, peptide solution for 300 s, and back to assay buffer for 300 s. If multiple samples were tested, Ni-NTA sensors can be reconditioned in regeneration (10 mM glycine, pH 1.7) solution followed by reload solution (10 mM NiCl2) for 30 and 60 s, respectively. Measurements were carried out at 30 °C. Data were analyzed within the ForteBio Data Analysis software. Data were processed by double subtracting ligand only and protein only reference wells and aligning the data to the beginning of the association. Then, global kinetic fit was performed for all sensogram curves with a 1:1 model. Steady state KD values were reported.
AlphaScreen Assay with Biotinylated-ENL-S1:
The AlphaScreen assay was carried out in 384-well plates. Manual assay setup was performed in a 40 uL reaction buffer (50 mM HEPES pH 7.4, 100 mM NaCl, 0.1% bovine serum albumin, and 0.05% CHAPS). 10 µL of varying concentrations of His-ENL YEATS (0-300 nM) and 10 µL of […]

[2] = molecular target: T2, ENL YEATS domain (His-ENL YEATS) (Homo sapiens, UniProt Q03111); experiment: AlphaScreen inhibition of ENL YEATS binding to biotinylated H3K27cr peptide; conditions: mean ± SD, n = 3
T2 construct: (aa 1−148) was cloned in pET19b; made in house; host or cells: E. coli BL21(DE3pLysS)
T2 sequence (Q03111 1-148): T1 sequence (Q03111 1-148)
Text: as §1
Characterization of Selected Peptide Inhibitors
AlphaScreen Assay to Validate ENL Inhibitors:
His-ENL, His-AF9 (aa 1-149, EpiCypher), and biotinylated H3K27cr (aa 15-33, EpiCypher) were used to assay the synthesized inhibitors. The lyophilized peptide inhibitors were dissolved in DMF […]
and serially diluted into assay buffer (50 mM HEPES, 100 mM NaCl, 0.1% BSA, 0.05% CHAPS, pH 7.4) and incubated in the presence of 120 nM His-tagged protein at 37 °C for 30 minutes. 12.5 μL of biotinylated H3K27cr (400 nM) was aliquoted into a light gray 384-well Alphaplate (Perkin Elmer) and incubated at 37 °C. 12.5 μL of the inhibitor/protein solution was added to the H3K27cr solution, and incubated for 30 minutes at 37 °C. 25 μL of AlphaScreen histidine (nickel chelate) detection beads (Perkin Elmer) was added at 20 μg/mL each bead (streptavidin donor beads and nickel chelate acceptor beads), and the plate was incubated at 37 °C for 30 minutes. The plate was cooled to room temperature for 10 minutes, and then the beads were excited at 680 nm and the luminescence at 615 nm was read. […]
Biolayer […]
interferometry assays were performed in 96 well plates (GreinerBio-One, polypropylene, flat-bottom) using an Octet Red96 System (Sartorius). Wells were filled with 200 μL of assay buffer, blocking buffer (assay buffer + 0.1% BSA), protein solution, peptide solution, regeneration solution, and reload solution. For immobilization, His-tagged proteins were immobilized onto Ni-NTA sensors at 20 for 600 s. Sensors were then dipped into blocking buffer for 180 s, assay […] buffer for 300 s, peptide solution for 300 s, and back to assay buffer for 300 s. If multiple samples were tested, Ni-NTA sensors can be reconditioned in regeneration (10 mM glycine, pH 1.7) solution followed by reload solution (10 mM NiCl2) for 30 and 60 s, respectively. Measurements […]

`CC(C)[C@H](NC(=O)[C@H](CC(=O)O)NC(=O)[C@@H](N)Cc1ccc(O)cc1)C(=O)N[C@@H](Cc1ccc(O)cc1)C(=O)N[C@@H](CS)C(=O)N[C@@H](Cc1ccc(O)cc1)C(=O)N[C@@H](CCCCNC(=O)c1ccco1)C(N)=O` [ENL-S1f] (H-YDVYCYK(2Furoyl)-NH2) was tested, and the Kd ([1]; BLI) was 10.3 nM, the “Selectivity (ENL:AF9) from BLI KD values” [1] was 14.0 fold and the IC50 [2] was 22.4 ± 2.2 nM.
For `CCCC(=O)NCCCC[C@H](NC(=O)[C@H](Cc1ccc(O)cc1)NC(=O)[C@H](CS)NC(=O)[C@H](Cc1ccc(O)cc1)NC(=O)[C@@H](NC(=O)[C@H](CC(=O)O)NC(=O)[C@@H](N)Cc1ccc(O)cc1)C(C)C)C(N)=O` [ENL-S1] (H-YDVYCYK(Butyryl)-NH2), the Kd ([1]; BLI) was 36.3 nM and 36 nM, the kon ([1]; BLI) was 62300 ± 7e+06 M⁻¹ s⁻¹ and the “Selectivity (ENL:AF9) from BLI KD values” [1] was 5.6 fold. The IC50 [2] was 62.6 ± 1.4 nM.
For `CC(C)[C@H](NC(=O)[C@H](CC(=O)O)NC(=O)[C@@H](N)Cc1ccc(O)cc1)C(=O)N[C@@H](Cc1ccc(O)cc1)C(=O)N[C@@H](CS)C(=O)N[C@@H](Cc1ccc(O)cc1)C(=O)N[C@@H](CCCCNC(=O)c1cnco1)C(N)=O` [ENL-S1o] (H-YDVYCYK(Oxazole(5-CO))-NH2), the Kd ([1]; BLI) was 2 nM, the “Selectivity (ENL:AF9) from BLI KD values” [1] was 27.6 fold and the IC50 [2] was 10 nM and 10.3 nM.
For `C/C=C/C(=O)NCCCC[C@H](NC(=O)[C@H](Cc1ccc(O)cc1)NC(=O)[C@H](CS)NC(=O)[C@H](Cc1ccc(O)cc1)NC(=O)[C@@H](NC(=O)[C@H](CC(=O)O)NC(=O)[C@@H](N)Cc1ccc(O)cc1)C(C)C)C(N)=O` [ENL-S1c] (H-YDVYCYK(Crotonyl(E))-NH2), the Kd ([1]; BLI) was 16.2 nM, the “Selectivity (ENL:AF9) from BLI KD values” [1] was 9.1 fold and the IC50 [2] was 20 nM.
